Experimental data as given in PubChem BioAssay AID1963866 (Molecular Pharmacology Branch, DTP, NCI, 2024).
Several values for one entry are separate records, joined by “and”; a condition that tells them apart may be missing. Equal values may be shown once.

Test system: PDC KRAS tumor spheroids with HUVEC/MSC, viability
Test: Anticancer human tumor 349418-098-R-PDC patient-derived lung adenocarcinoma cell line growth inhibition [KRAS2]
Settings: for viability, T/C: stronger effect = lower value
From the text: Multicellular complex tumor spheroid response to RAS pathway inhibitors in combination with a targeted agents in patient-derived cell lines with oncogenic KRAS variants from multiple cancer types
A high-throughput screen of multi-cell type tumor spheroids was designed to identify active combinations of targeted small molecules and KRAS pathway inhibitors. Complex spheroids include a stromal component modeled by human endothelial cells (HUVEC) and fibroblasts modeled by human mesenchymal stem cells (MSCs). The concentration ranges selected for each drug and investigational agent were based upon clinically achievable concentrations if the clinical Cmax of the agent was known.
Compounds. The drugs and investigational agents: BI-3406 (NSC825286), BAY-293 (NSC824723), batoprotafib (TNO155; NSC825523), sotorasib (AMG 510; NSC818433), MRTX1257 (NSC819558), elimusertib (BAY 1895344; NSC800525), molibresib (GSK525762; NSC774829), temuterkib (LY3214996; NSC803410), venetoclax (NSC766270), alisertib (NSC759677), olaparib (NSC753686), talazoparib (NSC767125), erdafitinib (NSC781556), ipatasertib (NSC767898), cabozantinib (NSC761068), nintedanib (NSC756659), abemaciclib (NSC768073), docetaxel (NSC628503), trametinib (NSC758246), and sapanisertib (NSC764658) were obtained from the National Cancer Institute (NCI) Developmental Therapeutics Program Chemical Repository. The FDA-approved anticancer drug set is available from the Developmental Therapeutics Program. […] The stock solutions were prepared in dimethyl sulfoxide (DMSO, Sigma-Aldrich, St. Louis, MO, cat. D2650) at 800-fold the tested concentration and stored at -70 degrees C prior to their use. All drugs and investigational agents were tested over a range starting from a high concentration at or near the clinical Cmax and decreasing in half-log increments. If the clinical Cmax for an agent had not been determined, the highest concentration tested was 10 microM.
Cell Culture. All cells were maintained in an incubator at 37 degrees C and 5% CO2 with 95% humidity. The PDC lines were cultured according to standard operating procedures established by the NCI PDMR (https://pdmr.cancer.gov/sops/default.htm). Briefly, all PDCs were thawed and cultured in Matrigel-coated flasks prepared with a working solution of 1X Ham's F-12 nutrient mix, without supplementation (Invitrogen, Waltham, MA, cat. 11765054), 100 U/mL penicillin-streptomycin (Invitrogen, cat. 15140122), and 2.5% Matrigel (Corning Inc., Corning, NY, cat. 354248) for the first three passages. All PDCs were cultured in complete DMEM/F-12 media containing advanced DMEM/F-12 (Invitrogen, cat. 12634028), 4.9% defined fetal bovine serum, heat inactivated (HyClone Laboratories Inc., Logan, UT, cat. SH30070.03HI), 389 ng/mL hydrocortisone (Sigma-Aldrich, cat. H4001), 9.7 ng/mL human EGF recombinant protein (Invitrogen, cat. PHG0313), 23.4 microg/mL adenine (Sigma-Aldrich, cat. A2786), 97.3 U/mL penicillin-streptomycin (Invitrogen, cat. 15140122), 1.9 mM L-glutamine (Invitrogen, cat. 25030081), and 9.7 microM Y-27632 dihydrochloride (Tocris Bioscience, Bristol, United Kingdom, cat. 1254). The PDCs were cultured in complete DMEM/F12 media without 9.7 microM Y-27632 dihydrochloride for at least two passages prior to the screen. The established cell line HOP-62 was cultured in RPMI 1640 medium, HEPES (Invitrogen, cat. 22400105) with 10% defined fetal bovine serum (HyClone Laboratories Inc., cat. SH30070.03) and 2 mM L-glutamine (Invitrogen, cat. 25030081). The pooled donor HUVEC were cultured in endothelial cell growth medium 2 (PromoCell, Heidelberg, Germany, cat. C-22011) and the hMSC were cultured in mesenchymal stem cell growth medium 2 (PromoCell, cat. C-28009). For all experiments, HUVEC and hMSC were used at passages </=5, while the malignant cell lines were used at passages </=15. […]

[1] = compound alone, run of 07/19/2021
[2] = compound alone, run of 07/26/2021
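Note: spheroids exposed to compounds for seven days before readout.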

SMILES | viability, T/C (compound 10 µM) | viability, T/C (compound 0.0316 µM) | IC50 (curve of compound) | viability, T/C (compound 0.1 µM) | viability, T/C (compound 0.316 µM) | viability, T/C (compound 1 µM) | viability, T/C (compound 3.16 µM) | also measured
C=CC(=O)N1CCN(c2nc(=O)n(-c3c(C)ccnc3C(C)C)c3nc(-c4c(O)cccc4F)c(F)cc23)C(C)C1 (stereo not drawn) | 37.2% [middle of 17 runs] | – | – | – | – | – | – | IC50 [1]: 5.54 µM [middle of 5 runs]; IC50 [2]: 6.3 µM [middle of 6 runs]
C=CC(=O)N1CCN(c2nc(OCC3CCCN3C)nc3c2CCN(c2cccc4cccc(C)c24)C3)CC1CC#N (stereo not drawn) | – | – | – | – | – | – | – | IC50 [1]: 1.47 µM [middle of 5 runs]; IC50 [2]: 1.33 µM [middle of 5 runs]
CC(=O)Nc1cccc(-n2c(=O)n(C3CC3)c(=O)c3c(Nc4ccc(I)cc4F)n(C)c(=O)c(C)c32)c1 | – | 7.25% [middle of 5 runs] | < 0.1 nM | – | – | – | – | viability, T/C (compound 0.0001 µM): 31.7% [middle of 5 runs]; viability, T/C (compound 0.000316 µM): 22.2% [middle of 5 runs]; viability, T/C (compound 0.001 µM): 18.4% [middle of 5 runs]; viability, T/C (compound 0.00316 µM): 13.8% [middle of 5 runs]; viability, T/C (compound 0.01 µM): 9.89% [middle of 5 runs]
CC(=O)OC12COC1CC(O)C1(C)C(=O)C(O)C3=C(C)C(OC(=O)C(O)C(NC(=O)OC(C)(C)C)c4ccccc4)CC(O)(C(OC(=O)c4ccccc4)C21)C3(C)C (stereo not drawn) | – | 17.7% [middle of 5 runs] | < 10 nM | 19.3% [middle of 5 runs] | 22.6% [middle of 5 runs] | 32.3% [middle of 4 runs] | 25.7% [middle of 5 runs] | viability, T/C (compound 0.01 µM): 15% [middle of 5 runs]
CC(C)NCC(C(=O)N1CCN(c2ncnc3c2C(C)CC3O)CC1)c1ccc(Cl)cc1 (stereo not drawn) | 7.52% [middle of 5 runs] | 93.4% [middle of 5 runs] | 334 nM [middle of 5 runs] | 77.8% [middle of 5 runs] | 49.3% [middle of 5 runs] | 27.4% [middle of 5 runs] | 17.1% [middle of 5 runs] | –
CC(C)n1nc(-c2ccc3oc(N)nc3c2)c2c(N)ncnc21 | – | 9.1% [middle of 5 runs] | 0.92 nM [middle of 5 runs] | 8.83% [middle of 5 runs] | – | – | – | viability, T/C (compound 0.000316 µM): 87.2% [middle of 5 runs]; viability, T/C (compound 0.001 µM): 47.6% [middle of 5 runs]; viability, T/C (compound 0.00316 µM): 17.1% [middle of 5 runs]; viability, T/C (compound 0.01 µM): 10.7% [middle of 5 runs]
CC1(C)CCC(CN2CCN(c3ccc(C(=O)NS(=O)(=O)c4ccc(NCC5CCOCC5)c([N+](=O)[O-])c4)c(Oc4cnc5[nH]ccc5c4)c3)CC2)=C(c2ccc(Cl)cc2)C1 | 5.14% [middle of 5 runs] | 101% [middle of 5 runs] | 1.89 µM [middle of 5 runs] | 97.5% [middle of 5 runs] | 91.1% [middle of 5 runs] | 88.3% [middle of 5 runs] | 21.2% [middle of 5 runs] | –
CC1COCCN1c1cc(-c2ccnn2C)c2ccnc(-c3ccn[nH]3)c2n1 (stereo not drawn) | – | – | – | 10.9% [middle of 5 runs] | 6.73% [middle of 5 runs] | 5.15% [middle of 5 runs] | 4.48% [middle of 5 runs] | –
CC1OCC2(CCN(c3cnc(Sc4ccnc(N)c4Cl)c(N)n3)CC2)C1N (stereo not drawn) | – | 102% (2×) and 80.3% | > 10000 nM | – | – | – | – | IC50 (compound alone, run of 07/12/2021): 10000 nM and > 10000 nM; IC50 [1]: > 10000 nM; IC50 [2]: > 10000 nM
CCN1CCN(Cc2ccc(Nc3ncc(F)c(-c4cc(F)c5nc(C)n(C(C)C)c5c4)n3)nc2)CC1 | – | 19.6% [middle of 5 runs] | – | 16.7% [middle of 5 runs] | 14.5% [middle of 5 runs] | 5.13% [middle of 5 runs] | – | viability, T/C (compound 0.00316 µM): 60.9% [middle of 5 runs]; viability, T/C (compound 0.01 µM): 35.7% [middle of 5 runs]
CCNC(=O)CC1N=C(c2ccc(Cl)cc2)c2cc(OC)ccc2-n2c(C)nnc21 (stereo not drawn) | 1.07% [middle of 5 runs] | – | 138 nM [middle of 5 runs] | 57.3% [middle of 5 runs] | 30.4% [middle of 5 runs] | 8.84% [middle of 5 runs] | 2.06% [middle of 5 runs] | –
CN(C)C/C=C/C(=O)Nc1cc2c(Nc3ccc(F)c(Cl)c3)ncnc2cc1O[C@H]1CCOC1 | – | 99% [middle of 5 runs] | > 100 nM | 97.2% [middle of 5 runs] | – | – | – | viability, T/C (compound 0.001 µM): 94.4% [middle of 5 runs]
CNCc1ccccc1-c1csc(C(C)Nc2nc(C)nc3cc(OC)c(OC)cc23)c1 (stereo not drawn) | 0.1% [middle of 12 runs] | – | – | – | – | – | – | IC50 [1]: 1.6 µM [middle of 5 runs]; IC50 [2]: 1.09 µM [middle of 6 runs]
COC(=O)c1ccc2c(C(=Nc3ccc(N(C)C(=O)CN4CCN(C)CC4)cc3)c3ccccc3)c(O)[nH]c2c1 | 16.1% [middle of 5 runs] | – | – | – | – | – | 24.1% [middle of 5 runs] | –
COc1cc(Nc2ncc3c(n2)-c2ccc(Cl)cc2C(c2c(F)cccc2OC)=NC3)ccc1C(=O)O | 24.8% [middle of 5 runs] | – | < 31.6 nM and 43.2 nM | 27.8% [middle of 5 runs] | 33.1% [middle of 5 runs] | 35.6% [middle of 5 runs] | 33.9% [middle of 5 runs] | –
COc1cc(OC)cc(N(CCNC(C)C)c2ccc3ncc(-c4cnn(C)c4)nc3c2)c1 | 0.57% [middle of 4 runs] | 99% [middle of 4 runs] | 2.53 µM [middle of 4 runs] | 102% [middle of 4 runs] | – | 98.2% [middle of 4 runs] | 38.9% [middle of 4 runs] | –
COc1cc2nccc(Oc3ccc(NC(=O)C4(C(=O)Nc5ccc(F)cc5)CC4)cc3)c2cc1OC | – | 102% [middle of 5 runs] | 1.76 µM [middle of 5 runs] | 98.8% [middle of 5 runs] | 94.4% [middle of 5 runs] | – | 14.4% [middle of 5 runs] | –
Cn1nccc1Nc1nccc(-c2cc3c(s2)C(C)(C)N(CCN2CCOCC2)C3=O)n1 | 5.9% [middle of 5 runs] | 56.4% [middle of 5 runs] | 52.2 nM [middle of 5 runs] | 40.2% [middle of 5 runs] | 21.2% [middle of 5 runs] | 14.3% [middle of 5 runs] | 7.8% [middle of 5 runs] | –
Cn1ncnc1[C@H]1c2n[nH]c(=O)c3cc(F)cc(c23)N[C@@H]1c1ccc(F)cc1 | – | 86.2% [middle of 5 runs] | > 100 nM | 78.7% [middle of 5 runs] | – | – | – | viability, T/C (compound 0.000316 µM): 104% [middle of 5 runs]; viability, T/C (compound 0.001 µM): 96.9% [middle of 5 runs]; viability, T/C (compound 0.00316 µM): 96.4% [middle of 5 runs]; viability, T/C (compound 0.01 µM): 94.2% [middle of 5 runs]
O=C(c1cc(Cc2n[nH]c(=O)c3ccccc23)ccc1F)N1CCN(C(=O)C2CC2)CC1 | – | 91.8% [middle of 5 runs] | – | 94.4% [middle of 5 runs] | – | – | – | –
